Values quoted from earlier work in article PMC9851200, “Multiparameter phenotypic screening for endogenous TFEB and TFE3 translocation identifies novel chemical series modulating lysosome function” (Autophagy, 2022).
Where two headings read alike, the source gives them in different places.

Columns and labels:
Design in all cases: method as in original PKIS2 published data
[1] = target: kinases (KINOMEscan panel) (Homo sapiens, UniProt P19525); conditions: kinase ElF2AK2; Published KINOMEscan; ref original PKIS2 published data; cited from earlier work
[2] = target: kinases (KINOMEscan panel) (Homo sapiens, UniProt Q9BYT3); conditions: kinase STK33; Published KINOMEscan; ref original PKIS2 published data; cited from earlier work
[3] = target: kinases (KINOMEscan panel) (Homo sapiens, UniProt O95819); conditions: MAP4K4; Published KINOMEscan; ref original PKIS2 published data; cited from earlier work
[4] = target: kinases (KINOMEscan panel) (Homo sapiens, UniProt Q7KZI7); conditions: MARK2; Published KINOMEscan; ref original PKIS2 published data; cited from earlier work
[5] = test system: kinases (KINOMEscan panel); conditions: Published KINOMEscan, ref original PKIS2 published data, cited from earlier work
[6] = target: T1, kinases (KINOMEscan panel) (Homo sapiens, UniProt P29320); conditions: kinase EPHA3; Published KINOMEscan; ref original PKIS2 published data; cited from earlier work
T1 sequence (P29320 21-983): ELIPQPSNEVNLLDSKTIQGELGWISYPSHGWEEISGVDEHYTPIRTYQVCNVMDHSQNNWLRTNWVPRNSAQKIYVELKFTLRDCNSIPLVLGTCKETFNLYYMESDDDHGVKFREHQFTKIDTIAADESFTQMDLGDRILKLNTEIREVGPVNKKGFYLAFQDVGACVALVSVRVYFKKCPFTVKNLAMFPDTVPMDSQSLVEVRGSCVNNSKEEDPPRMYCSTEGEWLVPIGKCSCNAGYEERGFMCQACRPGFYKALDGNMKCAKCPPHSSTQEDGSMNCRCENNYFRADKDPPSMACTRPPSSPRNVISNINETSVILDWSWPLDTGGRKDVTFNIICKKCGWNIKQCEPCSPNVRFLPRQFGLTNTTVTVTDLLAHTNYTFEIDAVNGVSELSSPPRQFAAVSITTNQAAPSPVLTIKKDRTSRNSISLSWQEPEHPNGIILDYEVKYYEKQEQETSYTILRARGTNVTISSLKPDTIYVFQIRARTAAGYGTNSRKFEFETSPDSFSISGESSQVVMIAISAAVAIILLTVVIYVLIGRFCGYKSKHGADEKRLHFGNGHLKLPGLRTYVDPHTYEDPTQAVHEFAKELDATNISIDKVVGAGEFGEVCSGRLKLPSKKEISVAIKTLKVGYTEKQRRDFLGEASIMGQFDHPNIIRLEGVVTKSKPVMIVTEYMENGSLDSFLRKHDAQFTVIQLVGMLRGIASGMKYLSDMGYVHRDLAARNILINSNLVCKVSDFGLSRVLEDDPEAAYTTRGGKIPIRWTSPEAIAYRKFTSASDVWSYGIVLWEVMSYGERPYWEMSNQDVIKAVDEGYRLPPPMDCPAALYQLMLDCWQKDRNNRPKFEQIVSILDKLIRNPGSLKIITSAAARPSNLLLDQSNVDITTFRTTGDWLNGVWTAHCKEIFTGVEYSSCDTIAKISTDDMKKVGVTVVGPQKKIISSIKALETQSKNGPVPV

[7] = target: T2, kinases (KINOMEscan panel) (Homo sapiens, UniProt Q9NRH2); conditions: kinase SNRK; Published KINOMEscan; ref original PKIS2 published data; cited from earlier work
T2 sequence (Q9NRH2 1-765): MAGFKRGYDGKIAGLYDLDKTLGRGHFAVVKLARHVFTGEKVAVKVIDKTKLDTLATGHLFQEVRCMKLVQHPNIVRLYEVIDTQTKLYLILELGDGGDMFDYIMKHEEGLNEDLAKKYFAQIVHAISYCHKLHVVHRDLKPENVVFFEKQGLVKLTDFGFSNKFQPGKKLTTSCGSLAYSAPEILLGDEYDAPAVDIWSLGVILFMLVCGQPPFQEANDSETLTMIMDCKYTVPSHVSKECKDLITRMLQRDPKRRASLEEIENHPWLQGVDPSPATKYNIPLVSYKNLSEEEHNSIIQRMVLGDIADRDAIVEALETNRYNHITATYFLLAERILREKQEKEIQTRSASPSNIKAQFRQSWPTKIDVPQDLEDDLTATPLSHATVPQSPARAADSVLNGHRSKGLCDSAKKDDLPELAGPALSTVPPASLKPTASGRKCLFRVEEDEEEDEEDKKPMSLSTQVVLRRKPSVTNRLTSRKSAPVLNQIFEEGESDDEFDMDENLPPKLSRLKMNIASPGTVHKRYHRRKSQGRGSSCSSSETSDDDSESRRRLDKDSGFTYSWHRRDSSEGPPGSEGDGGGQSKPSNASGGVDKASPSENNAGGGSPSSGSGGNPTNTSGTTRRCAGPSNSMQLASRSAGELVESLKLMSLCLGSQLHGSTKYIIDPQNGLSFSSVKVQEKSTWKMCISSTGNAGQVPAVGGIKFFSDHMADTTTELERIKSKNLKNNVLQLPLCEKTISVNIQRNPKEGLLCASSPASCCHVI

[8] = target: kinases (KINOMEscan panel) (Homo sapiens, UniProt Q9UKE5); conditions: TNIK; Published KINOMEscan; ref original PKIS2 published data; cited from earlier work
[9] = target: kinases (KINOMEscan panel) (Homo sapiens, UniProt P27448); conditions: MARK3; Published KINOMEscan; ref original PKIS2 published data; cited from earlier work
[10] = target: kinases (KINOMEscan panel) (Homo sapiens, UniProt Q9UEW8); conditions: Published KINOMEscan; ref original PKIS2 published data; cited from earlier work
[11] = target: kinases (KINOMEscan panel) (Homo sapiens, UniProt O00750); conditions: PIK3C2B; Published KINOMEscan; ref original PKIS2 published data; cited from earlier work
[12] = target: kinases (KINOMEscan panel) (Homo sapiens, UniProt Q13627); conditions: Published KINOMEscan; ref original PKIS2 published data; cited from earlier work

kinases (KINOMEscan panel) (Homo sapiens, UniProt Q7KZI7), sequence (Q7KZI7 whole entry): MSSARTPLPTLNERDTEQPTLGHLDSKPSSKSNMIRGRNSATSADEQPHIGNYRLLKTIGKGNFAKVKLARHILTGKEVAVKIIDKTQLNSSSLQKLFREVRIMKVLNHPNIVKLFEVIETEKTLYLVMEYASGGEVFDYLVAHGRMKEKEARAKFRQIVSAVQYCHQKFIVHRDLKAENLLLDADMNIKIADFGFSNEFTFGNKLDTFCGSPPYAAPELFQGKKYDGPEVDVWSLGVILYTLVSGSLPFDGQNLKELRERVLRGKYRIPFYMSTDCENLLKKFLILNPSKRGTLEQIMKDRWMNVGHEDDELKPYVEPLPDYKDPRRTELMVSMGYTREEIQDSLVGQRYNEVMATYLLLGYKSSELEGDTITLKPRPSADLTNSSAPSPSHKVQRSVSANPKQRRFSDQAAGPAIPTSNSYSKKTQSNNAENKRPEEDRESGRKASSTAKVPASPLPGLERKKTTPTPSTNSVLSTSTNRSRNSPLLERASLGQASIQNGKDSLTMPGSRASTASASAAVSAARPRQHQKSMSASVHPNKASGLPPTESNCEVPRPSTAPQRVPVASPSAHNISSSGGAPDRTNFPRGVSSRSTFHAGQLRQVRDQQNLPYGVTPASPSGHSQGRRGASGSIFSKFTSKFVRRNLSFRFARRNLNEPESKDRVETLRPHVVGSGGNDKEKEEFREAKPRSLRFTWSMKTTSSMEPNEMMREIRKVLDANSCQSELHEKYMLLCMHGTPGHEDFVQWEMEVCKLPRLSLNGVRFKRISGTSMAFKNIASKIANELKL
kinases (KINOMEscan panel) (Homo sapiens, UniProt P27448), sequence (P27448 whole entry): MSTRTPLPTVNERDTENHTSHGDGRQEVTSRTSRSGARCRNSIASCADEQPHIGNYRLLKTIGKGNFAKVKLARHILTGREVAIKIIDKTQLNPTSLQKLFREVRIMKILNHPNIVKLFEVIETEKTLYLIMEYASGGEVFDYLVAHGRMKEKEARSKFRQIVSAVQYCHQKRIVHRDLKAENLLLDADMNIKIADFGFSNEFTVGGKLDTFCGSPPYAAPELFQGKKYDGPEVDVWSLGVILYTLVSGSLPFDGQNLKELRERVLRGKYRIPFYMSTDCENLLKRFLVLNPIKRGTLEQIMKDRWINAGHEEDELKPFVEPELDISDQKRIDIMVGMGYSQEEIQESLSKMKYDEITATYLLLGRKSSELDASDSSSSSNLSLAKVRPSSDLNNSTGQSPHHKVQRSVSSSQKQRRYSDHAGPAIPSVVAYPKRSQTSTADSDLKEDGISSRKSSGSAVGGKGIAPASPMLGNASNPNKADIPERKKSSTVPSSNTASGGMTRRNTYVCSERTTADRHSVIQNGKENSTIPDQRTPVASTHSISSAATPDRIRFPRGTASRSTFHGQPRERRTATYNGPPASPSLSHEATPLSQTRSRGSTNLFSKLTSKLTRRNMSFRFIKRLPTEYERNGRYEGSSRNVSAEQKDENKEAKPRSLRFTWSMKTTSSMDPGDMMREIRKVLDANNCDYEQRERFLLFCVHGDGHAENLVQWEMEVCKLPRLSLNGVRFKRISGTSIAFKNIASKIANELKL
kinases (KINOMEscan panel) (Homo sapiens, UniProt Q9UKE5), sequence (Q9UKE5 whole entry): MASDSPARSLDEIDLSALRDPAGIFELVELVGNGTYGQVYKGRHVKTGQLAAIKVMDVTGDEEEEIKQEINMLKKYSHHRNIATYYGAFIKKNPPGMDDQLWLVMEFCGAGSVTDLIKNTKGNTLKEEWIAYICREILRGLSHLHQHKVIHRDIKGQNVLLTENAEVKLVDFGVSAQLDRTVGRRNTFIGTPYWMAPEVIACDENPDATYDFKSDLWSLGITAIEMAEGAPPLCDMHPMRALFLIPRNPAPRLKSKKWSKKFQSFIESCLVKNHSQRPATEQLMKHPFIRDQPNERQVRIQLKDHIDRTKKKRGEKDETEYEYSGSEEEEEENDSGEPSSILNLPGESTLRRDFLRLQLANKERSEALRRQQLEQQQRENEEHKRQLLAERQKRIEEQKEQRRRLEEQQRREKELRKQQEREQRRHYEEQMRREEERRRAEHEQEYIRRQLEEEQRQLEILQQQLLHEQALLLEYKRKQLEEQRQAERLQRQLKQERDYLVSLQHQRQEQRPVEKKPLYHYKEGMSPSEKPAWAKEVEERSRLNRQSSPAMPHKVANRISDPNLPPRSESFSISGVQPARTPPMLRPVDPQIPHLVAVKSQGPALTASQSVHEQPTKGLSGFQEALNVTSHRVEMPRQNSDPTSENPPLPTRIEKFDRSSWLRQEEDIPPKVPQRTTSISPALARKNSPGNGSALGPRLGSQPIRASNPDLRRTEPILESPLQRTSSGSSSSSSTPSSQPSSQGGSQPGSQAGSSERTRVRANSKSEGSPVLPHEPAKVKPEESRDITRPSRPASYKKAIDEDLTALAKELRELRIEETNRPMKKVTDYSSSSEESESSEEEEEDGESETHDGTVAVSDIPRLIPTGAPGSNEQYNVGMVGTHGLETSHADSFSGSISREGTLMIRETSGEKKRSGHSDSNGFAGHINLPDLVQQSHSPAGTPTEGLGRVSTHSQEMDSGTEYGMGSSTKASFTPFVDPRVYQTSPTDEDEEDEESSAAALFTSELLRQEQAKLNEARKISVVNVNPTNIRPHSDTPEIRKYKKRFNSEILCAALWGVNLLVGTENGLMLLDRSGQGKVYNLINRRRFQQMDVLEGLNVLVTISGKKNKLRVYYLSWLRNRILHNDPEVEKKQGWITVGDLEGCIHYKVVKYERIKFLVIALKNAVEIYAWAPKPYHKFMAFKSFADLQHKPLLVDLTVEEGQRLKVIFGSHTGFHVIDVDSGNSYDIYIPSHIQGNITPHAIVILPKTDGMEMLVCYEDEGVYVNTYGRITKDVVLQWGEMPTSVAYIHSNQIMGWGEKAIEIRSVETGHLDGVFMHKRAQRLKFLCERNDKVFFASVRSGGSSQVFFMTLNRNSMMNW
kinases (KINOMEscan panel) (Homo sapiens, UniProt O95819), sequence (O95819 whole entry): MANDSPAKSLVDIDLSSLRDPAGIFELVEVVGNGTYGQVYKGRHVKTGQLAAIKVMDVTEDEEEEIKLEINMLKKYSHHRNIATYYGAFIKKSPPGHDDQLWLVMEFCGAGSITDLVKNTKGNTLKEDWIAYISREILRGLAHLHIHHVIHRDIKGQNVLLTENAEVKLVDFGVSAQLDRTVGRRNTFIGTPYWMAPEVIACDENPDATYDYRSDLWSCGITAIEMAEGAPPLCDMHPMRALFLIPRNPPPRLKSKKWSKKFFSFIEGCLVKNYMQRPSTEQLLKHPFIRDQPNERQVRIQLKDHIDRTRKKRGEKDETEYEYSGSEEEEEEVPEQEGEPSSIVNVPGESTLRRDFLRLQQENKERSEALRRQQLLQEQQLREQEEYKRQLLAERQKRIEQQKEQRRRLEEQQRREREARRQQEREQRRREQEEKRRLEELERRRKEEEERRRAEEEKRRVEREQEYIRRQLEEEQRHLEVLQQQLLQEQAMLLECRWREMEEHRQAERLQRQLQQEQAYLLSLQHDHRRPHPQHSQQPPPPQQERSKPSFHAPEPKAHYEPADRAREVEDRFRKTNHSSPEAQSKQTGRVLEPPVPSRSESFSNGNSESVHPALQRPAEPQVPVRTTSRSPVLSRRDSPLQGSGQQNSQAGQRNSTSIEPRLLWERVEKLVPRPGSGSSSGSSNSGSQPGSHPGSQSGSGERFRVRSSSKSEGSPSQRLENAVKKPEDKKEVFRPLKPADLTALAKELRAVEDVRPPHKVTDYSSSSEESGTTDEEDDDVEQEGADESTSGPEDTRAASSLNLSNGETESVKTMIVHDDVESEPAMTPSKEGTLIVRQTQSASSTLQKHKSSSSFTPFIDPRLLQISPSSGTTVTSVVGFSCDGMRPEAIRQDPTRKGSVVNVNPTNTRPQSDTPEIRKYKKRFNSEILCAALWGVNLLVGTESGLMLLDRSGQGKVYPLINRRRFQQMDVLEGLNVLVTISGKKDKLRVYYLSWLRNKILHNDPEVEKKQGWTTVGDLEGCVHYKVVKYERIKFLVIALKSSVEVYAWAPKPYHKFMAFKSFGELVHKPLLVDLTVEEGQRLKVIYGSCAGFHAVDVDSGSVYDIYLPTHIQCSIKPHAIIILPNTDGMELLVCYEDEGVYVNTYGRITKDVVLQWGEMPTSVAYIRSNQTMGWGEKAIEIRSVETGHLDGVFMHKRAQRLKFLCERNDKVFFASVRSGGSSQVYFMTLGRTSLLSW
kinases (KINOMEscan panel) (Homo sapiens, UniProt Q9BYT3), sequence (Q9BYT3 whole entry): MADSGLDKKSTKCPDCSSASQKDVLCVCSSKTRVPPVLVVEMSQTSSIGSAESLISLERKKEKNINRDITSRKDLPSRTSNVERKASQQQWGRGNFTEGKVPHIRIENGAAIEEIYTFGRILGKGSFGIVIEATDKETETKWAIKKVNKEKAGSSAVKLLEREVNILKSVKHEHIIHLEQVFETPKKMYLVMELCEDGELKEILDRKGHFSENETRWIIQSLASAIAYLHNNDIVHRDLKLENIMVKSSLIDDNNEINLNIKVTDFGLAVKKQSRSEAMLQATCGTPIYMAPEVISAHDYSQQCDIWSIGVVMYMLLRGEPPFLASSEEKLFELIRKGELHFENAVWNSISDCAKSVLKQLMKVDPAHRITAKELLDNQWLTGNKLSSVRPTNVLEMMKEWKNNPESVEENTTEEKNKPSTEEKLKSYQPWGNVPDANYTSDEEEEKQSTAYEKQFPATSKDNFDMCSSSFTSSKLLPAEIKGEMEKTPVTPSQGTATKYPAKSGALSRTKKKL

Cc1cccc(-c2nc(Nc3ccncc3)c3ccccc3n2)n1 [NK215]
KINOMEscan ElF2AK2 [1]: 2
KINOMEscan STK33 [2]: 2
KINOMEscan MAP4K4 [3]: 0
KINOMEscan MARK2 [4]: 0
KINOMEscan PRKAA2 [5]: 0
KINOMEscan PRKAA2 ([5]; kinase PRKAA2): 12
KINOMEscan EPHA3 [6]: 0
KINOMEscan SNRK [7]: 0
KINOMEscan TNIK [8]: 29
KINOMEscan MARK3 [9]: 32
KINOMEscan STK39 [10]: 0
KINOMEscan PIK3C2B [11]: 0
KINOMEscan DYRK1A [12]: 0
